Among the data in patent publication US12398154B2, “Azaquinazoline pan-KRas inhibitors” (Mirati Therapeutics, Inc., priority 2020, dated 2025) are IC50 values, retold here.

Molecules are shown by their SMILES. Where only a bound is given, the exact number is not on record here.

One assay has as its target KRas G12V (Homo sapiens, UniProt P01116, G12V). Put plainly: biochemical.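 Also: KRas binding measured by TR-FRET displacement at room temperature, IC50 fitted from percent of control values.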
The target in a further assay is KRas G12R (Homo sapiens, UniProt P01116, G12R). Briefly: biochemical.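 Also: TR-FRET displacement assay of compound binding to KRas, read after one hour at room temperature, potency from a four-parameter fit of percent-of-control values.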
For the next assay, the target named is KRas G12D (Homo sapiens, UniProt P01116, G12D). Put plainly: biochemical.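 Also: TR-FRET displacement binding assay on KRas, read after a one-hour incubation at room temperature, IC50 fitted from percent-of-control values.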
For a further assay, the system named is pERK in PSN1 cells. Put plainly: Inhibition of KRas phosphorylation of ERK (Cisbio HTRF pERK assay). To be noted: Homo sapiens, PSN1, 3 h, read-out: Inhibition (HTRF IC50) of KRas-mediated Phosphorylation of ERK, PSN1. (In general: Time-resolved FRET reads energy transfer from a long-lived donor to a nearby acceptor.)
The test system of the next assay is pERK in MKN1 cells. Described as above. The note with it: Homo sapiens, MKN-1, 3 h, read-out: Inhibition (HTRF IC50) of KRas-mediated Phosphorylation of ERK, MKN1.
Assay [1] has as its system phospho-ERK in NCI-H460 (Q61H) cells. Put plainly: Inhibition of KRas-mediated phosphorylation of ERK (in-cell western). Format: cell-based. The note with it: Homo sapiens, NCI-H460, 3 h, 3 hours compound, phospho-ERK normalized to GAPDH. The protocol:
(§1) Diluted compounds were then added in a final concentration of 0.5% DMSO. After 3 hours, 50 μL of 4.0% formaldehyde was added and the plates incubated at room temperature for 20 minutes. The plates were then dumped and permeabilized with 150 μL of ice cold 100% methanol for 10 minutes.
(§2) The amount of phospho-ERK was determined using an antibody specific for the phosphorylated form of ERK and compared to the amount of GAPDH. […] The plates were incubated overnight at 4° C. The plates were washed 3× with 150 uL PBS+0.1% Tween 20.
(§3) The plates were washed 3× with 150 uL PBS+0.1% Tween 20. Plates were imaged dry on a Li-COR Odyssey CLX plate reader.
(§4) The phospho-ERK (Thr202/Tyr204) signal was normalized to the GAPDH signal for each well and percent of DMSO control values were calculated. IC50 values were generated using a 4-parameter fit of the dose response curve.

Assay [2] concerns phospho-ERK in NCI-H727 (G12V) cells. The assay is described as above. In kind it is cell-based. The note with it: Homo sapiens, NCI-H727, 3 h, 3 hours compound, phospho-ERK normalized to GAPDH. The protocol:
as §1, §2, §3, §4

Assay [3] deals with phospho-ERK in AsPC-1 (G12D) cells. The description is as above. To be noted: Homo sapiens, ASPC1, 3 h, 3 hours compound, phospho-ERK normalized to GAPDH. In kind it is cell-based. The protocol:
as §1, §2, §3, §4

The next assay deals with KRas WT (Homo sapiens, UniProt P01116). Put plainly: biochemical.
A further assay deals with KRas G12C (Homo sapiens, UniProt P01116, G12C). Briefly: biochemical.
The target in another assay is KRas G12S (Homo sapiens, UniProt P01116, G12S). Put plainly: biochemical.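 Also: TR-FRET displacement binding to KRas, read after one hour incubation at room temperature, IC50 from four-parameter fit of percent of control.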
For another assay, the target named is KRas G12A (Homo sapiens, UniProt P01116, G12A). Put plainly: biochemical.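 Also: binding to KRas measured by TR-FRET displacement after one hour at room temperature, IC50 from a four-parameter fit of percent-of-control values.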
Sequence of KRas G12A (P01116 1-169 isoform P01116-2 G12A): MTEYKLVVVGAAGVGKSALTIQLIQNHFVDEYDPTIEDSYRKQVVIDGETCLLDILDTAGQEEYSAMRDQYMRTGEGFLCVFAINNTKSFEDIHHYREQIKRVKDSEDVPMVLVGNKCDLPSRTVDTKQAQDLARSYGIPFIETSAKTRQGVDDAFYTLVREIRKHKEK

Sequence of KRas G12V (P01116 1-169 isoform P01116-2 G12V): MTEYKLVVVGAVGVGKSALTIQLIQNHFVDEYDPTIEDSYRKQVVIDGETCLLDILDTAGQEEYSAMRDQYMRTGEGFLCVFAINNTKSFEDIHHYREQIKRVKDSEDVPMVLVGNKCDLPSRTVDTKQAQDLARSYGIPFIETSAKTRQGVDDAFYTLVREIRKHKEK
Sequence of KRas G12D (P01116 1-169 isoform P01116-2 G12D): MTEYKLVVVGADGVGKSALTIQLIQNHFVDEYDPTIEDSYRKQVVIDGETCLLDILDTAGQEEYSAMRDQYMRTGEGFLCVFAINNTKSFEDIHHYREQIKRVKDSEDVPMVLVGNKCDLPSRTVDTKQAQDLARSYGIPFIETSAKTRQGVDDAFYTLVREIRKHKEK
Sequence of KRas G12R (P01116 1-169 isoform P01116-2 G12R): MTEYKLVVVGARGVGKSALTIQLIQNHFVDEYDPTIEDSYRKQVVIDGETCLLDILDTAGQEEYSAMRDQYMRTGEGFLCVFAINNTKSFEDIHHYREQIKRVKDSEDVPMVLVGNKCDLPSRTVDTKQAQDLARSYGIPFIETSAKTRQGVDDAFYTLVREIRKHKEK
Sequence of KRas G12S (P01116 1-169 isoform P01116-2 G12S): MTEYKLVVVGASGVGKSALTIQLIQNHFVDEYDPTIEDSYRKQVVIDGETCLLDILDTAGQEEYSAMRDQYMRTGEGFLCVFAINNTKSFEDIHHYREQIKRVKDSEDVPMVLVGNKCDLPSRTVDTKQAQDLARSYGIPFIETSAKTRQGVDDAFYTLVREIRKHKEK
Sequence of KRas WT (P01116 1-169 isoform P01116-2): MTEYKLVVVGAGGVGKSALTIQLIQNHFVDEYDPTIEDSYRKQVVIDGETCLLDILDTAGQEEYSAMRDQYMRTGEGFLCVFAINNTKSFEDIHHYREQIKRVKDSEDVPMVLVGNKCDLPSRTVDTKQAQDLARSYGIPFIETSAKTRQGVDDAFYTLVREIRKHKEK
Sequence of KRas G12C (P01116 1-169 isoform P01116-2 G12C): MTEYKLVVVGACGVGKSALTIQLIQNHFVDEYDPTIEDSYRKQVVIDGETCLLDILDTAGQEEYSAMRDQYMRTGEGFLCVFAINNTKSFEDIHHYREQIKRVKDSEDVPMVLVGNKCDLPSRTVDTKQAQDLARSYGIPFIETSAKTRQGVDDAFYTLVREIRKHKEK

As for `CCc1c(F)ccc2cc(O)cc(-c3ncc4c(NCc5ccc(=O)n(C)c5)nc(OC[C@@]56CCCN5C[C@H](F)C6)nc4c3F)c12` [Example 199], the IC50 on KRas G12V was at most 2 nM; on KRas G12R, at most 2 nM; at KRas G12D, 3 nM; with pERK in PSN1 cells, at least 10000 nM; with pERK in MKN1 cells, 7 nM; in assay [1] it was 314 nM. Further, the IC50 in [2] amounted to 798 nM; in assay [3] it was 1320 nM.

Consider `NS(=O)(=O)CC1CCCN(c2nc(OC[C@@]34CCCN3C[C@H](F)C4)nc3c(F)c(-c4cc(O)cc5ccc(F)c(F)c45)ncc23)C1` (stereo partly shown) [Example 203], for which the half-inhibitory concentration (IC50) against KRas G12V was at most 2 nM; at KRas G12R, at most 2 nM; against KRas G12D, at most 2 nM; with pERK in PSN1 cells, 3710 nM; in the assay on pERK in MKN1 cells it was 35 nM; in assay [1], 758 nM. For the same compound, the values for the IC50 in assay [2] and in [3] were 1270 nM and 8010 nM, respectively.

With `CCc1c(F)ccc2cc(O)cc(-c3ncc4c(N5CCC[C@]6(CNC(=O)C6)C5)nc(OC[C@]56CCCN5C[C@@H](O)C6)nc4c3F)c12` [Example 206], the IC50 was at most 2 nM on KRas G12V; at most 2 nM against KRas G12R; at most 2 nM against KRas G12D; at least 10000 nM with pERK in PSN1 cells; 34 nM with pERK in MKN1 cells; 3380 nM in assay [1]. Moreover, the IC50 in assay [2] came out at 3330 nM; in assay [3], 6960 nM.

Regarding `CCc1c(F)ccc2cc(O)cc(-c3ncc4c(Nc5cnn(-c6ccncc6)c5)nc(OC[C@@]56CCCN5C[C@H](F)C6)nc4c3F)c12` [Example 297, 5-ethyl-6-fluoro-4-(8-fluoro-2-(((2R,7aS)-2-fluorohexahydro-1H-pyrrolizin-7a-yl)methoxy)-4-((1-(pyridin-4-yl)-1H-pyrazol-4-yl)amino)pyrido[4,3-d]pyrimidin-7-yl)naphthalen-2-ol], the half-maximal inhibitory concentration (IC50) against KRas G12V is at most 2 nM; against KRas G12R it was 9 nM; against KRas G12D it was 54 nM; with pERK in PSN1 cells, at least 10000 nM; in the assay on pERK in MKN1 cells it was 154 nM; in [1], 660 nM. Also, the IC50 in assay [2] was 450 nM; in [3], 3430 nM.

Take `CCc1c(F)ccc2cc(O)cc(-c3ncc4c(N5CCC[C@@](C)(O)C5)nc(OC[C@]56CCCN5[C@@H](CO)CC6)nc4c3F)c12` [Example 303, (R)-1-(7-(8-ethyl-7-fluoro-3-hydroxynaphthalen-1-yl)-8-fluoro-2-(((3R,7aR)-3-(hydroxymethyl)hexahydro-1H-pyrrolizin-7a-yl)methoxy)pyrido[4,3-d]pyrimidin-4-yl)-3-methylpiperidin-3-ol]: the IC50 against KRas G12V is at most 2 nM; against KRas G12R it was at most 2 nM; against KRas G12D, at most 2 nM; in the assay with pERK in PSN1 cells, at least 10000 nM; in the assay with pERK in MKN1 cells, 358 nM; in assay [1], 4120 nM. Besides, the IC50 in assay [2] came to 3690 nM; in assay [3] it was 3290 nM.

Consider `CCc1c(F)ccc2cc(O)cc(-c3ncc4c(N5CCC[C@@](C)(O)C5)nc(OC[C@@]56CCCN5[C@H](CO)CC6)nc4c3F)c12` [Example 304, (R)-1-(7-(8-ethyl-7-fluoro-3-hydroxynaphthalen-1-yl)-8-fluoro-2-(((3S,7aS)-3-(hydroxymethyl)hexahydro-1H-pyrrolizin-7a-yl)methoxy)pyrido[4,3-d]pyrimidin-4-yl)-3-methylpiperidin-3-ol], for which the IC50 against KRas G12V is at most 2 nM; against KRas G12R, at most 2 nM; at KRas G12D, at most 2 nM; in the assay with pERK in PSN1 cells, at least 10000 nM; with pERK in MKN1 cells it was 29 nM; in [1], 804 nM. Also, the values for the IC50 in assay [2] and in assay [3] were 2580 nM and 1370 nM, respectively.

Take `CCc1c(F)ccc2cc(O)cc(-c3ncc4c(N5CCC[C@@](C)(O)C5)nc(OC[C@@]56CCCN5C[C@H](O)C6)nc4c3F)c12` [Example 311, (2R,7aS)-7a-(((7-(8-ethyl-7-fluoro-3-hydroxynaphthalen-1-yl)-8-fluoro-4-((R)-3-hydroxy-3-methylpiperidin-1-yl)pyrido[4,3-d]pyrimidin-2-yl)oxy)methyl)hexahydro-1H-pyrrolizin-2-ol]: the IC50 against KRas G12V is at most 2 nM; against KRas G12R it was at most 2 nM; against KRas G12D, at most 2 nM; with pERK in PSN1 cells it was at least 10000 nM; in the assay on pERK in MKN1 cells, 15 nM; in [1] it was 501 nM. Moreover, the IC50 in assay [2] was 2600 nM; in assay [3], 738 nM.

Consider `O=C1NCC2(CCCN(c3nc(OC[C@@]45CCCN4C[C@H](F)C5)nc4c(F)c(-c5cc(O)cc6ccc(F)c(F)c56)ncc34)C2)N1` (stereo partly drawn) [Example 445, 7-(7-(7,8-difluoro-3-hydroxynaphthalen-1-yl)-8-fluoro-2-(((2R,7aS)-2-fluorohexahydro-1H-pyrrolizin-7a-yl)methoxy)pyrido[4,3-d]pyrimidin-4-yl)-1,3,7-triazaspiro[4.5]decan-2-one], for which the IC50 on KRas G12V is at most 2 nM; at KRas G12R, at most 2 nM; against KRas G12D, 4 nM; in the assay with pERK in PSN1 cells, at least 10000 nM; in the assay with pERK in MKN1 cells, 8200 nM; in assay [1], 1190 nM. Besides, the IC50 in assay [2] amounted to 2930 nM; in assay [3] it was 1620 nM.

As to `O=C1CC2(CCCN(c3nc(OC[C@@]45CCCN4C[C@H](F)C5)nc4c(F)c(-c5cc(O)cc6ccc(F)c(F)c56)ncc34)C2)CN1` (stereo partly drawn) [Example 446, 7-(7-(7,8-difluoro-3-hydroxynaphthalen-1-yl)-8-fluoro-2-(((2R,7aS)-2-fluorohexahydro-1H-pyrrolizin-7a-yl)methoxy)pyrido[4,3-d]pyrimidin-4-yl)-2,7-diazaspiro[4.5]decan-3-one], the IC50 is at most 2 nM at KRas G12V; 4 nM against KRas G12R; 4 nM against KRas G12D; at least 10000 nM with pERK in PSN1 cells; 786 nM in the assay on pERK in MKN1 cells; 2190 nM in assay [1]. Besides, the IC50 in assay [2] came to 2500 nM; in assay [3] it was 3670 nM.

As for `Cc1cc(N)nc(-c2ncc3c(N4CCCC(C)(O)C4)nc(OC[C@@]45CCCN4C[C@H](F)C5)nc3c2F)c1C(F)(F)F` (stereo partly drawn) [Example 459, 1-(7-(6-amino-4-methyl-3-(trifluoromethyl)pyridin-2-yl)-8-fluoro-2-(((2R,7aS)-2-fluorohexahydro-1H-pyrrolizin-7a-yl)methoxy)pyrido[4,3-d]pyrimidin-4-yl)-3-methylpiperidin-3-ol], the concentration for half-maximal inhibition (IC50) came out at 766 nM on KRas G12V; 1010 nM against KRas G12R; 537 nM against KRas G12D; 688 nM against KRas WT; 822 nM at KRas G12C; 821 nM at KRas G12S. In addition, the IC50 is 815 nM on KRas G12A, at least 10000 nM in [1], at least 10000 nM in assay [2] and 9940 nM in assay [3].

A word on the IC50: it is the point on the concentration scale where inhibition reaches its midpoint.
